Test results published in patent publication US7705053B2, “Benzamide derivative” (Chugai Seiyaku Kabushiki Kaisha, priority 2003, dated 2010).

Legend:
[1] = tested on: Human lung carcinoma cell line Calu-6; test: Cell proliferation assay (Calu-6); assay type: cell-based; conditions: Calu-6, 72 hours, WST-1, read-out: 50% growth inhibition concentration (IC50 value) Calu-6
Procedure: (§1) The test compound was serially diluted with DMSO, and then diluted 1:50 with a Ca^2+,Mg^2+-free phosphate-buffered physiological saline. The resulting dilution (10 μl) was dispensed into a 96-well plate. Human umbilical vein endothelial cells (HUVEC, purchased from Clonetics) were suspended in PRMI 1640 medium supplemented with 10% bovine fetal serum, 30 μg/mL vascular endothelial cell growth supplement, and 50 μg/mL heparin. Human lung carcinoma cell line Calu-6 was suspended in MEM medium supplemented with 10% bovine fetal serum, 0.1 mM nonessential amino acid, and 1 mM sodium pyruvate. Each cell suspension (190 μL) was dispensed into the plate containing the test compound such that the cell count per well was 3,000 cells. The plate was incubated in a CO2 incubator (37° C., 5% CO2). After 72 hours, 20 μL WST-1 (produced by Roche Diagnostics) was added to each well and, after 2 hours of incubation, the absorbance at 450 nm (reference wavelength: 650 nm) was measured. The 50% growth inhibition concentration (IC50 value) of the test compound was calculated from the inhibition rate obtained when the test compound was added, in comparison with the reference value obtained when the test compound was not added.
(§2) The IC50 values, for HUVEC and Calu-6, of representative examples of the compounds of the present invention are shown in Table 1.

HUVEC = test: Tube formation assay; assay type: cell-based; conditions: Homo sapiens, 264 h, 11 days of incubation, CD31 staining, read-out: capillary-like tube formation inhibition rates (%)
Procedure: An angiogenesis measurement kit (produced by KURABO) was charged with the test compound at final concentration of 20 μM, and incubated in a CO2 incubator (37° C., 5%). After 11 days of incubation, capillary-like tubes formed were fixed with 70% ethanol and visualized with a CD31 staining kit (produced by KURABO). Under a microscope, stain images of the wells were photographed, stored as an image file, and measured for the area of capillary-like tube formation by use of angiogenesis quantitative determination software of KURABO. The inhibition rates (%) of the test compound-charged wells were calculated, with the control taken as 100%.
The capillary-like tube formation inhibiting rates at 20 μM, against HUVEC, of representative examples of the compounds of the present invention are shown in Table 2.

[2] = tested on: Human umbilical vein endothelial cells (HUVEC); test: Cell proliferation assay (HUVEC); assay type: cell-based; conditions: 72 hours, WST-1, read-out: 50% growth inhibition concentration (IC50 value) HUVEC
Procedure: as §1, §2

[3] = tested on: human lung carcinoma cell line Calu-6; test: Antitumor test (Calu-6 xenograft); assay type: in vivo, Balb/c nude mice; conditions: 600 mg/kg, orally once daily for 11 days, mice
Procedure: (§3) A cell suspension of human lung carcinoma cell line Calu-6 was prepared using Hanks' balanced salt solution, and 5.0×10^6 of the cells were implanted subcutaneously in the flank region of female Balb/c nude mice. When the volume of the tumor reached 200 to 250 mm^3, the test compound was orally administered once daily for 11 days. The tumor volume was calculated from the equation π/6×(long diameter×short diameter×thickness). The tumor growth inhibition rate was calculated from changes in the tumor volume in the test compound treatment group relative to changes in the tumor volume in the control group.
(§4) The results of the antitumor test of compound 1-1-1 and compound 2-1-1, as representative examples of the compounds of the present invention, are shown in FIGS. 1-(A) and 1-(B) and 2-(A) and 2-(B).

[4] = tested on: blood vessels in the tumor tissue (Calu-6 xenograft); test: Measurement of the number of blood vessels in the tumor; assay type: in vivo, Balb/c nude mice; conditions: 600 mg/kg, orally once daily for 11 days, mice, relative to control group
Description: Measurement of the Number of Blood Vessels in the Tumor
5.0×10^6 Cells of human lung carcinoma cell line Calu-6 were implanted subcutaneously in the flank region of female Balb/c nude mice. When the volume of tumor reached 200 to 250 mm^3, the test compound was orally administered once daily for 11 days. Twenty-four hours after the final administration, xenograft tissue was removed from the mice, and a middle portion of the long diameter of the tumor was embedded, as a block 2 to 3 mm thick, in O.C.T. Compound, and preserved as a frozen tissue specimen. Frozen sections were prepared, and blood vessels in the tumor tissue were stained by an immunohistological method using anti-mouse CD31 antibody. The stained tissue was photographed under a microscope, and the images were stored as an image file. The number of the stained blood vessels was measured by Image Pro (Promega). The decrease rate of blood vessel density was calculated as a decrease rate relative to the blood vessel density in the control group.
The decrease rates of the blood vessel density in the tumor tissue following treatment with 600 mg/kg of compound 1-1-1 and compound 2-1-1, as representative examples of the compounds of the present invention, are shown in Table 3.

[5] = Body weight and toxicity findings in the antitumor test; assay type: in vivo; conditions: 600 mg/kg, orally once daily for 11 days
Procedure: as §3, §4

Row | Compound | IC50 [1] [µM] | inhibition at 20 µM (HUVEC) [%] | IC50 [2] [µM] | tumor growth inhibition rates (TGI) [3] [%] | Decrease (%) in intratumor blood vessel density [4] [%] | body weights of the mice [5] | findings of toxicity [5]
1 | COc1ccc(C(N)=O)cc1C(=O)Nc1ccccc1C [Compound 1-3-23, 4-methoxy3-N-o-tolylisophthalamide] | > 50 | 27 | 2.85 |  |  |  | 
2 | COc1ccc(C(N)=O)cc1C(=O)Nc1cc(C)c(F)cc1Cl [Compound 1-3-17, 3-N-(2-chloro-4-fluoro-5-methylphenyl)-4-methoxyisophthalamide] | > 25 | 80 | 1.2 |  |  |  | 
3 | COc1ccc(C(N)=O)cc1C(=O)Nc1cccc2ncccc12 [Compound 1-3-39, 4-methoxy-3-N-quinolin-5-yl-isophthalamide] | > 25 | 20 | 2.36 |  |  |  | 
4 | COc1ccc(C(N)=O)cc1C(=O)Nc1ccc(C(F)(F)F)cc1 [Compound 1-3-21, 4-methoxy-3-N-(4-trifluoromethylphenyl)isophthalamide] | > 50 | 71 | 5.1 |  |  |  | 
5 | COc1ccc(C(=O)NC2CCCC2)cc1/C=C/c1ccc(OC(F)(F)F)cc1 [Compound 2-2-1, N-cyclopentyl-4-methoxy-3-[(E)-2-(4-trifluoromethoxy-phenyl)vinyl]benzamide] | > 50 | 60 | 3.35 |  |  |  | 
6 | COc1ccc(C(N)=O)cc1C(=O)Nc1ccc(F)cc1F [Compound 1-3-24, 3-N-(2,4-difluorophenyl)-4-methoxyisophthalamide] | > 50 | 28 | 5.19 |  |  |  | 
7 | COc1ccc(C(N)=O)cc1C(=O)Nc1ccc(Br)cc1Br [Compound 1-3-45, 3-N-(2,4-dibromophenyl)-4-methoxyisophthalamide] | > 50 | 31 | 0.05 |  |  |  | 
8 | COc1ccc(C(N)=O)cc1C(=O)Nc1cccc(C(F)(F)F)c1F [Compound 1-3-8, 3-N-(2-fluoro-3-trifluoromethylphenyl)-4-methoxyisophthalamide] | > 50 |  | 0.35 |  |  |  | 
9 | COc1ccc(C(N)=O)cc1C(=O)Nc1cccc(Cl)c1Cl [Compound 1-3-2, 3-N-(2,3-dichlorophenyl)-4-methoxyisophthalamide] | > 50 |  | 0.15 |  |  |  | 
10 | COc1ccc(C(N)=O)cc1C(=O)Nc1ccc(Br)cc1F [Compound 1-3-1, 3-N-(4-bromo-2-fluorophenyl)-4-methoxy-isophthalamide] | > 50 |  | 0.19 |  |  |  | 
11 | CNC(=O)c1ccc(OC)c(/C=C/c2ccc(OC(F)(F)F)cc2)c1 [Compound 2-2-2, 4-methoxy-N-methyl-3-[(E)-2-(4-trifluoromethoxyphenyl)-vinyl]-benzamide] | > 50 | 77 | 2.27 |  |  |  | 
12 | COc1ccc(C(N)=O)cc1C(=O)Nc1ccc(OC(F)(F)F)cc1 [Compound 1-2-1, 3-N-(4-trifluoromethoxyphenyl)-4-methoxyisophthalamide] | > 100 | 68 | 2.4 |  |  |  | 
13 | COc1ccc(C(N)=O)cc1C(=O)Nc1ccccc1Cl [Compound 1-3-7, 3-N-(2-chlorophenyl)-4-methoxyisophthalamide] | > 50 | 67 | 0.28 |  |  |  | 
14 | COc1ccc(C(N)=O)cc1C(=O)Nc1cc(C(F)(F)F)ccc1Cl [Compound 1-3-16, 3-N-(2-chloro-5-trifluoromethylphenyl)-4-methoxyisophthalamide] | > 50 | 80 | 4.6 |  |  |  | 
15 | COc1ccc(C(N)=O)cc1C(=O)Nc1cccc2c1CCCC2 [Compound 1-3-6, 4-methoxy-3-N-(5,6,7,8-tetrahydronaphthalen-1-yl)isophthalamide] | > 50 | 46 | 0.24 |  |  |  | 
16 | COc1ccc(C(N)=O)cc1/C=C/c1ccc(OC(F)(F)F)cc1 [Compound 2-1-1, 4-methoxy-3-[(E)-2-(4-trifluoromethoxyphenyl)vinyl]benzamide] | > 100 | 93 | 0.17 | 75 | 37 | no decreases in the body weights of the mice were observed | no findings of toxicity observed
17 | COc1ccc(C(N)=O)cc1C(=O)Nc1ccc(Br)cc1Cl [Compound 1-3-41, 3-N-(4-bromo-2-chlorophenyl)-4-methoxyisophthalamide] | > 50 | 82 | 0.04 |  |  |  | 
18 | CCNC(=O)c1ccc(OC)c(/C=C/c2ccc(Cl)cc2)c1 [Compound 2-2-9, 3-[(E)-2-(4-chlorophenyl)-vinyl]-N-ethyl-4-methoxy-benzamide] | > 25 | 79 | 1.41 |  |  |  | 
19 | COc1ccc(C(N)=O)cc1C(=O)Nc1ccccc1F [Compound 1-3-12, 3-N-(2-fluorophenyl)-4-methoxyisophthalamide] | > 50 | 27 | 2.54 |  |  |  | 
20 | COc1ccc(C(N)=O)cc1C(=O)Nc1ccccc1OC(F)(F)F [Compound 1-3-5, 4-methoxy-3-N-(2-trifluoromethoxyphenyl)-isophthalamide] | > 50 | 91 | 0.14 |  |  |  | 
21 | COc1ccccc1NC(=O)c1cc(C(N)=O)ccc1OC [Compound 1-3-10, 4-methoxy-3-N-(2-methoxyphenyl)isophthalamide] | > 50 | 46 | 0.76 |  |  |  | 
22 | COc1ccc(C(N)=O)cc1C(=O)Nc1ccc(Cl)cc1 [Compound 1-1-1, 3-N-(4-chlorophenyl)-4-methoxyisophthalamide] | > 100 | 43 | 2.27 | 82 | 44 | no decreases in the body weights of the mice were observed | no findings of toxicity observed
23 | COc1cc(NC(=O)c2cc(C(N)=O)ccc2OC)cc(OC)c1 [Compound 1-3-18, 3-N-(3,5-dimethoxyphenyl)-4-methoxyisophthalamide] | > 50 | 29 | 1.25 |  |  |  | 
